Series [1] in a line: Two-step dissolution / precipitation Fed Human in-vitro model (Fessif). The class given is physicochemical. The settings on record: thermodynamic from solid, final pH 5.0, 60min in FeSSGF pH3.0 + 120min in FeSSIF x3 pH5.0, 37°C, read-out: solubility (HPLC-UV dosage of supernatant), last measurement point. The method, then: (§1) ABX464 in its unique crystalline form and ABX464 :VA64 ASD (prepared according to example 1 above) were tested by using both Fasted and Fed Human in-vitro models (respectively named Fassif and Fessif models). These models simulate respectively fasted and fed state gastrointestinal fluids for dissolution testing.
(§2) For the Fed in-vitro model, 11.4mg of ABX464:VA64 ASD (4.0mg equivalent ABX464) were weighed in 7 different vials. In all vials, 1ml of FeSSGF pH3.0 solution pre-heated at 37°C were added. Suspension were then vortexed at 37°C. After 15min vortex, suspension of the first vial was centrifuged 5min at 18000 rpm and filtered under 0.45µm filter (Millex LCR filter ref. SLCR0.13NK) for HPLC-UV dosage of supernatant. After 30min vortex, suspension of the second vial was centrifuged 5min at 18000 rpm and filtered under 0.45µm filter (Millex LCR filter ref. SLCR0.13NK) for HPLC-UV dosage of supernatant. After 60min vortex, suspension of the third vial was centrifuged 5min at 18000 rpm and filtered under 0.45µm filter (Millex LCR filter ref. SLCR0.13NK) for HPLC-UV dosage of supernatant.
After 60min vortex, 0.5ml of FeSSIF x3 pH5.0 pre-heated at 37°C was added on other 4 vials. Suspension were then vortexed at 37°C. […]

Series [2] is described as follows: Two-step dissolution / precipitation Fasted Human in-vitro model (Fassif). The class given is physicochemical. The settings on record: thermodynamic from solid, final pH = 6.5, 30min in FaSSGF pH1.2 + 120min in FaSSIF x2 pH6.5 / Sodium bicarbonate 90/10 v/v, 37°C, read-out: solubility (HPLC-UV dosage of supernatant), last measurement point. The method, then: as §1
as §2, with “the Fasted” for “the Fed”, “in 6” for “in 7”, “of FaSSGF pH1.2” for “of FeSSGF pH3.0”, “supernatant.” for “supernatant. After 60min vortex, suspension of the third vial was centrifuged 5min at 18000 rpm and filtered under 0.45µm filter (Millex LCR filter ref. SLCR0.13NK) for HPLC-UV dosage of supernatant.”
After 30min vortex, 1ml of FaSSIF x2 pH6.5 / Sodium bicarbonate 90/10 v/v pre-heated at 37°C was added on other 4 vials. Suspension were then vortexed at 37°C. After 15min vortex, suspension of the third vial was centrifuged 5min at 18000 rpm and filtered under 0.45µm filter (Millex LCR filter ref. SLCR0.13NK) for HPLC-UV dosage of supernatant. […]

Molecules are shown by their SMILES.

For `FC(F)(F)Oc1ccc(Nc2ccc3cccc(Cl)c3n2)cc1` [ABX464, 8-Chloro-N-(4-(trifluoromethoxy)phenyl)quinolin-2-amine], the solubility at 120 min in series [1] came out at 508 µg/mL; in series [2], 70 µg/mL.

Values taken from patent EP3858336A1, “AMORPHOUS SOLID DISPERSION OF 8-CHLORO-N-(4-(TRIFLUOROMETHOXY)PHENYL)QUINOLIN-2-AMINE” (ABIVAX, priority 2020, dated 2021).
